Tests used:
cynNav1.7 = cynNav1.7 (Macaca fascicularis, UniProt A0A2K5WIF4); test: cell-based; type: cell-based, cynomologus macaque
GABAA channel = test: Off target activity panel; type: binding; details: 10 µM
PDE6 = test: Off target activity panel; type: biochemical; details: 10 µM
Serotonin 5-HT1A = Serotonin 5-HT1A (Homo sapiens, UniProt P08908); test: Off target activity panel; type: binding; details: read-out: Inhibition at test concentration (%)
Serotonin 5-HT3 = Serotonin 5-HT3 (Homo sapiens, UniProt P46098); test: Off target activity panel; type: binding; details: read-out: Inhibition at test concentration (%)

In the case of `Nc1[nH]ncc1-c1cc(Cl)ccc1Oc1cc(F)c(S(=O)(=O)Nc2cscn2)cc1Cl` [PF-05089771, 4-[2-(5-amino-1H-pyrazol-4-yl)-4-chlorophenoxy]-5-chloro-2-fluoro-N-(1,3-thiazol-4-yl)benzenesulfonamide], the IC50 (cynNav1.7) is reported as 12 nM, the Slope (cynNav1.7; cynNav1.7) is reported as 1.1 and the “Inhibition at test concentration (%)” value (GABAA channel) is reported as 41%. For the same compound, the “Inhibition at test concentration (%)” value (PDE6) was 7%, the inhibition at 10 µM (Serotonin 5-HT1A) was 13% and the inhibition at 10 µM (Serotonin 5-HT3) was 4%.
